{"source": "patent US20210186930A1", "about": "“Methods of Treating Renal Disease Associated With Chronic Kidney Disease Such as Alport Syndrome” (UNIVERSITY OF MIAMI, priority 2018, published 2021)", "key": {"human podocytes": {"test_system": "human podocytes", "assay": "Collagen treatment of human podocytes: lipid content and free fatty acid uptake (FIG. 1)", "type": "cell-based", "description": "(§1) Differentiated human podocytes were serum starved for 16 hours followed by 18 hours treatment with 50 μg/mL collagen I (Corning), collagen II (Discoverx), and collagen IV (Sigma Aldrich)\nLipid content determination: Following collagen treatment, podocyte lipid content was assessed after fixation with PFA and staining with Bodipy 493/503 and Cell Mask Blue (Invitrogen). The Opera High Content Screening system and Acapella Image Analysis software was used to determine the number of Bodipy 493/503 positive lipid droplets per cell. Triglyceride content was assessed using the Triglyceride Quantification Kit (Cell Biolabs) following manufacturer instructions and normalizing to cell protein content using the BCA method.\nFree fatty acid uptake was assessed using the fluorometric free fatty acid uptake Kit (Abcam) in Ctrl and Col I treated podocytes after 1 hour serum starvation. The uptake of FFA was analyzed using a fluorimeter (SpectraMax5, […])."}, "DDR1": {"target": "T1, DDR1 (Homo sapiens, UniProt Q08345)", "T1 construct": "Differentiated human podocytes were serum starved for 16 hours followed by 18 hours treatment with 50 μg/mL collagen I; endogenous in cells; host or cells: conditionally immortalized human podocyte cell line (Saleem et al. 2002), differentiated", "T1 sequence (Q08345 19-913)": "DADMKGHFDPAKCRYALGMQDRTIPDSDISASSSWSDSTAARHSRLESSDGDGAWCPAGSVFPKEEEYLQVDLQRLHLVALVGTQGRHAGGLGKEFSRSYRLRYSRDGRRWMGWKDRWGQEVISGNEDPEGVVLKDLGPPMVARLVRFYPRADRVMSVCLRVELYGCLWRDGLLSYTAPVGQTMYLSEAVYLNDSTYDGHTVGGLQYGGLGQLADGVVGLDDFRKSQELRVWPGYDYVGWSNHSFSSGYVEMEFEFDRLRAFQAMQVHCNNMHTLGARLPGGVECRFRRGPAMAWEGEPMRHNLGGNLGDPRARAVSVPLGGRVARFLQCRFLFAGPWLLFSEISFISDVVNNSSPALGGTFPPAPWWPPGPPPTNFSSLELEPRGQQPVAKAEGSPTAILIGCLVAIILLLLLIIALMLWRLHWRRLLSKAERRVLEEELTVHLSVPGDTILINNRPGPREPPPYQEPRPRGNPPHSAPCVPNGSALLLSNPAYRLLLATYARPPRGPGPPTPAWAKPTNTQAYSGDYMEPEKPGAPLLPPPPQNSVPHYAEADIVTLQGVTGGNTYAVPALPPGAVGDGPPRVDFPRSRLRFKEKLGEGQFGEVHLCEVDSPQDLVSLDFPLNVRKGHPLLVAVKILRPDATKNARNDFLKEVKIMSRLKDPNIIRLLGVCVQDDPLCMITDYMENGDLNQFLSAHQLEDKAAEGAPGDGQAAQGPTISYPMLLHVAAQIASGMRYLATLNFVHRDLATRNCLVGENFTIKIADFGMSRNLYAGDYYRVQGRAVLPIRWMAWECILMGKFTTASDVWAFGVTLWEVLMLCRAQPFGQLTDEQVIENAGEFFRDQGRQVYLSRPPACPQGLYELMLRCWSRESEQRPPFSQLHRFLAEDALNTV", "assay": "DDR1 activation in human podocytes treated with collagen (FIG. 2)", "type": "cell-based", "description": "as §1\nIsolation of plasma membranes: Preparation of membrane pellets was performed by ultracentrifugation of cell pellets suspended in homogenization media (15 mM KCl, 1.5 mM MgCl2, 10 mM HEPES, 1 mM DTT) supplemented with protease inhibitors. Effective separation was verified by WB for Na-K ATPase."}, "Col4a3−/− mice [1]": {"test_system": "Col4a3−/− mice", "assay": "Renal function in Col4a3-/- mice treated with ezetimibe, ramipril or both (Example 1, FIG. 5)", "type": "in vivo, mouse", "description": "Albumin/creatinine ratio: All albuminuria values are expressed as μg albumin/mg creatinine. Albumin/creatinine determined by ELISA (Bethyl Laboratories) for albumin detection and a biochemical assay based on the Jaffe method for creatinine detection (Stanbio) as previously described. Serology: Immediately prior to sacrifice, a blood sample was collected for the determination of BUN and lipid panel analysis in the comparative laboratory core facility of the University of Miami. Serum creatinine was determined by tandem mass spectrometry (UAB-UCSD O'Brien Core Center, University of Alabama). The following experiment was performed to investigate which treatment, ezetimibe (EZ), ramipril (Ramp) or the combination of both drugs (EZ+Ramp), would best preserve renal function in Col4a3 knockout mice, all drugs were administered to 4-week-old Col4a3−/− mice for 4 weeks as follows: ezetimibe (Ez) was orally administered at a concentration of 5 mg/kg BW, ramipril was added to the drinking water at a concentration that would lead to a daily ramipril uptake of 10 mg/kg BW. All mice were sacrificed at 8 weeks of age. The following four groups of mice were analyzed: Col4a3^+/+, Col4a3^−/−+Ez, Col4a3^−/−+Ramp and Col4a3^−/−+Ez+Ramp."}, "Col4a3−/− mice [2]": {"test_system": "Col4a3−/− mice", "assay": "Mesangial expansion (PAS) and renal fibrosis (Picrosirius Red) in Col4a3-/- mice (Example 3, FIG. 6)", "type": "in vivo, mouse", "conditions": "treated vs untreated Col4a3−/− mice; ezetimibe 5 mg/kg, ramipril 10 mg/kg, 4 weeks", "description": "Assessment of mesangial expansion: Periodic acid-Schiff (PAS) staining of 4 μm-thick tissue sections was performed using a standard protocol. Twenty glomeruli per section were analyzed for mesangial expansion by semi quantitative analysis (scale 0-4) performed by two blinded independent investigators.\nPicrosirius red staining: Paraffin-embedded sections (4 μm thick) were deparaffinized with xylene and a graded alcohol series. Sections were rinsed for 5 min in distilled water, stained for 1 hour with picrosirius red in saturated aqueous picric acid, examined under a light microscope and photomicrographs were taken. Histological images were visualized using a light microscope (Olympus BX 41, Tokyo, Japan) at 40× magnification and analyzed using Image J software.\nThe following experiment was performed to investigate which treatment, ezetimibe (EZ), ramipril (Ramp) or the combination of both drugs (EZ+Ramp), would best preserve renal function in Col4a3 knockout mice, all drugs were administered to 4-week-old Col4a3−/− mice for 4 weeks as follows: ezetimibe (Ez) was orally administered at a concentration of 5 mg/kg BW, ramipril was added to the drinking water at a concentration that would lead to a daily ramipril uptake of 10 mg/kg BW. All mice were sacrificed at 8 weeks of age. The following four groups of mice were analyzed: Col4a3^+/+, Col4a3^−/−+Ez, Col4a3^−/−+Ramp and Col4a3^−/−+Ez+Ramp.\nPAS staining was performed to detect and quantify mesangial expansion, Picrossirius Red staining to detect and quantify renal fibrosis in treated compared to untreated Col4a3^−/− mice. […] Representative images for PAS staining are shown in FIG. 6A and of Picrosirius Red staining to detect fibrosis in […]. Bar graph quantifications for both are shown in FIGS. 6C and 6D, respectively."}, "Col4a3−/− mice [3]": {"test_system": "Col4a3−/− mice", "assay": "Renal cortex lipid content in Col4a3-/- mice (Example 4, FIG. 7)", "type": "in vivo, mouse", "conditions": "treated vs untreated Col4a3−/− mice; ezetimibe 5 mg/kg, ramipril 10 mg/kg, 4 weeks", "description": "Determination of cholesterol content in kidney cortex: Tissue from kidney cortexes was homogenized in hypotonic buffer (10 mM HEPES pH7.0, 15 mM KCl, 1 mM MgCl2, 10 mM phosphatase inhibitors). Lipids from 100 μl of the homogenate were extracted with 1 ml of hexane:isopropanol (3:2, v/v), dried and reconstituted in 100 μl of isopropanol-NP40 (9:1, v/v). Tissue fractions not soluble in the organic solvent, were further dried, reconstituted in 8 M urea, and assayed for protein concentration using Pierce BCA protein assay kit (ThermoFisher Scientific, MA, USA). Total cholesterol from lipid extracts was determined by the enzymatic method as previously described (Robinet, P., Wang, Z., Hazen, S. L. & Smith, J. D. A simple and sensitive enzymatic method for cholesterol quantification in macrophages and foam cells. Journal of lipid research 51, 3364-3369, 2010). Briefly, endogenous peroxides present were eliminated by incubating samples and standards with catalase (Sigma-Aldrich, MO, USA), 45 U/ml final concentration, for 15 min at 37° C. […] The plates were incubated at 37° C. for 30 min and fluorescence was read at 530 nm (Ex) and 580 nm (Em) in a plate reader (SpectraMax M5, Molecular Devices, CA, USA). Cholesteryl esters (CE) quantification was based on the method described from Toshimi M, et al. Briefly, 25 μl of samples was mixed with 150 μl of free cholesterol decomposition reagent (45 U/ml catalase, 1 U/ml cholesterol oxidase) and incubated 2-4 h at 37° C., and then the final volume was brought up to 250 μl prior to determining free and total cholesterol remaining. Total cholesterol remaining was determined by mixing 50 μl of end product reaction with 50 μl of reagent A, as described above. Free cholesterol remaining was determined similarly, but without including cholesterol esterase in the reagent. CE was calculated by the formula CE=(TC−FC)×DF, where TC is the total cholesterol remaining, FC the free cholesterol remaining and DF the dilution factor, in this case, 10. Lipid content: Oil Red 0 staining was performed on frozen tissue sections and triglyceride content was determined on snap frozen kidney tissue as described above. The following experiment was performed to investigate which treatment, ezetimibe (EZ), ramipril (Ramp) or the combination of both drugs (EZ+Ramp), would best preserve renal function in Col4a3 knockout mice, all drugs were administered to 4-week-old Col4a3−/− mice for 4 weeks as follows: ezetimibe (Ez) was orally administered at a concentration of 5 mg/kg BW, ramipril was added to the drinking water at a concentration that would lead to a daily ramipril uptake of 10 mg/kg BW. All mice were sacrificed at 8 weeks of age. The following four groups of mice were analyzed: Col4a3^+/+, Col4a3^−/−+Ez, Col4a3^−/−+Ramp and Col4a3^−/−+Ez+Ramp."}, "[4]": {"conditions": "cited from earlier work"}, "[5]": {"conditions": "cited from earlier work", "remark": "listed apart in the source"}, "[6]": {"conditions": "Col4a3−/− mice treated 4 weeks, ezetimibe 5 mg/kg, ramipril 10 mg/kg, vs untreated Col4a3−/−"}, "[7]": {"conditions": "Col4a3−/− mice, 4 weeks treatment"}}, "note": "Entries after “also recorded” stand apart in the source; their conditions may differ.", "data": [{"molecule": "Col I: collagen I (Corning), 50 μg/mL, used to treat human podocytes", "values": [{"measurement": "cholesterol ester to total cholesterol ratio", "setting": "human podocytes; Col I treated human podocytes", "value": "mildly decreased"}, {"measurement": "esterified cholesterol content", "setting": "human podocytes; Col I treated human podocytes", "value": "increased"}, {"measurement": "total cholesterol content", "setting": "human podocytes; Col I treated human podocytes", "value": "increased total cholesterol content"}, {"measurement": "cellular triglyceride content", "setting": "human podocytes; human podocytes after Col I treatment", "value": "increased"}, {"measurement": "number of lipid droplets per cell (BODIPY)", "setting": "human podocytes; human podocytes, 50 μg/mL collagen, 18 hours, vs Ctrl", "value": "increased lipid droplet content"}, {"measurement": "free fatty acid uptake", "setting": "human podocytes; human podocytes, collagen I treated vs Ctrl", "value": "increased"}, {"measurement": "activation of DDR1 at the plasma membrane", "setting": "DDR1; human podocytes, plasma membrane fraction", "value": "leads to activation of DDR1"}, {"measurement": "DDR1 activation (pDDR1)", "setting": "DDR1; normal human podocytes", "value": "leads to DDR1 activation"}]}, {"molecule": "CCOC(=O)[C@H](CCc1ccccc1)N[C@@H](C)C(=O)N1[C@H](C(=O)O)C[C@@H]2CCC[C@@H]21", "note": "[ramipril, (2S,3aS,6aS)-1[(S)—N—[(S)-1-Carboxy-3-phenylpropyl]alanyl]octahydrocyclop-enta[b]pyrrole-2-carboxylic acid, 1-ethyl ester]", "values": [{"measurement": "albumin/creatinine ratio (ACR)", "setting": "Col4a3−/− mice [1]; 4-week-old Col4a3−/− mice treated 4 weeks, ezetimibe 5 mg/kg BW oral, ramipril 10 mg/kg BW in drinking water, vs untreated Col4a3−/−", "value": "significant reduction in the albumin/creatinine ratio; also recorded: significant decrease in the albumin/creatinine ratio"}, {"measurement": "serum BUN levels", "setting": "Col4a3−/− mice [1]; [6]", "value": "significant reduction in the serum BUN levels"}, {"measurement": "serum creatinine levels", "setting": "Col4a3−/− mice [1]; [6]", "value": "significant reduction in the serum creatinine levels"}, {"measurement": "reduction of BUN levels, compared to ezetimibe alone", "setting": "Col4a3−/− mice [1]; [7]", "value": "superior effect on reducing BUN levels"}, {"measurement": "reduction of serum creatinine, compared to ezetimibe alone", "setting": "Col4a3−/− mice [1]; [7]", "value": "superior effect on reducing serum creatinine levels"}, {"measurement": "mesangial expansion (PAS staining, score)", "setting": "Col4a3−/− mice [2]", "value": "significant reduction; also recorded: significantly reduced mesangial expansion"}, {"measurement": "renal fibrosis (Picrosirius Red staining)", "setting": "Col4a3−/− mice [2]", "value": "significant reduction; also recorded: significantly reduced"}, {"measurement": "esterified cholesterol (CE) content in kidney cortexes", "setting": "Col4a3−/− mice [3]", "value": "reduces the esterified cholesterol content; also recorded: significantly decreased"}, {"measurement": "triglyceride (TG) content in kidney cortexes", "setting": "Col4a3−/− mice [3]", "value": "no effect on the Triglyceride content; also recorded: not observed"}, {"measurement": "solubility in polar organic solvents and buffered aqueous solutions", "setting": "[4]", "value": "soluble"}, {"measurement": "blood cholesterol levels", "setting": "[5]; general knowledge stated in the patent", "value": "little or no effect"}, {"measurement": "peripheral arterial resistance and blood pressure", "setting": "[5]; hypertensive patients", "value": "reduction in blood pressure without a compensatory rise in heart rate"}, {"measurement": "mortality", "setting": "[5]; patients with clinical signs of congestive heart failure after surviving an acute myocardial infarction", "value": "reduce mortality"}]}]}
